Measured values taken from BindingDB's records for doi:10.1021/jm980707k (University of Alabama At Birmingham, 1999).

Assay: In vitro inhibitory activity against H1N9 Influenza A Neuraminidase.

SMILES | IC50 [µM]
NCC1CCC(=O)N1c1ccc(C(=O)O)cc1N=C(N)N (stereo unspecified) [4-(2-Aminomethyl-5-oxo-pyrrolidin-1-yl)-3-guanidino-benzoic acid] | 2600
O=C(O)c1ccc(N2C(=O)CCC2(CO)CO)cc1 [4-(2,2-Bis-hydroxymethyl-5-oxo-pyrrolidin-1-yl)-benzoic acid anion] | 760
CCC(CC)Nc1cc(C(=O)O)ccc1N1CCCC1=O [3-(1-Ethyl-propylamino)-4-(2-oxo-pyrrolidin-1-yl)-benzoic acid] | 222
NC(N)=Nc1cc(C(=O)O)ccc1N1C(=O)CCC1(CO)CO [4-(2,2-Bis-hydroxymethyl-5-oxo-pyrrolidin-1-yl)-3-guanidino-benzoic acid] | 5
CC(=O)N[C@@H]1[C@@H]([C@H](O)[C@H](O)CO)O[C@](O)(C(=O)O)C[C@H]1O [(2S,4R,5S,6S)-5-Acetylamino-2,4-dihydroxy-6-((1R,2R)-1,2,3-trihydroxy-propyl)-tetrahydro-pyran-2-carboxylic acid] | 10
CCC(CC)Nc1cc(C(=O)O)ccc1N1C(=O)CCC1(CO)CO [4-[2,2-bis(hydroxymethyl)-5-oxopyrrolidin-1-yl]-3-[(1-ethylpropyl)amino]benzoic acid] | 0.048
